The target in the experiment is Human TRPA1 (Homo sapiens, UniProt O75762). The experiment in a line: Alternative TRPA1 Ca2+ fluorometry assay (hTRPA1/TREx-HEK293 cells, Fluo-4, FDSS 6000). Conditions: Fluo-4-AM, agonist 6,11-dihydro-5H-dibenzo[b,e]azepine-10-carboxylic acid methyl ester 25 nM, procedure used for Examples 184, 190 to 192, 194 to 316. Format: cell-based. The arrangement: expressed in transfected cells. How it is done:
In alternative embodiments, the assay was performed using the following procedure for Examples 184, 190 to 192, and 194 to 316:
The human TRPA1 gene was cloned into the pT-Rex-Dest30 inducible vector and stably transfected in T-Rex™-293 cells (Invitrogen, Merelbeke, Belgium). This tetracycline inducible hTRPA1 expression system was used in order to prevent CA^2+ overload in the cultured cells due to sustained TRPA1 expression. hTRPA1/TREx-HEK293 cells (referred to as jTRPA1 cells in the following text) were maintained under standard sterile cell culture conditions. The culture medium for the jTRPA1-HEK cells was DMEN (Gibco BRL, Invitrogen, Merelbeke, Belgium) supplemented with 5 g/l gengticin (Gibco), 5 mL/l blasticidin (Invitorgen), 14.6 g/l L-Glutamine (200 mMl; Gibco), 5 g/l penicillin/streptomycin (5.10-6 IU/I, Gibco), 5.5 g/l pyruvic acid (Gibco) and 10% foetal calf serum (Hyclone, Logan Utah, USA).
For Ca^2+ fluorometry experiments, hTRPA1-HEK cells were resuspended in HBSS seeding medium: HBSS (with CaCl2 and MgCl2: Gibco) supplemented with 14.6 g/l L-Glutamine (200 mM; Gibco), 5 g/l penicillin/streptomycin (5.10-6 IU/l. Gibco), 5.5 g/l pyruvic acid (Gibco) and 10% foetal calf serum (heat inactivated for 30 minutes at 56° C.; Hyclone, Logan Utah, USA). The cells were seeded in poly-D-lysine-coated 384-well round bottom polypropylene plates (Costar Corning, Data Packaging, Cambridge Mass., USA) at 12000 cells/well. Fifty ng/ml tetracycline was added to induce the hTRPA1 expression 24 h before the experiment.
The cells were loaded with 5 mg/l Fluo-4-AM (Molecular Probes, Invitorgen, Merelbeke, Belgium) dissolved in HBSS seeding medium supplemented with 0.7 g/l Probenecid (Sigma) and incubated for 1 h at 37° C. and subsequently at 20° C. for 1 to 2 h. The fluorescence was measured in the FDSS 6000 imaging based plate reader (Hamamutsu Photonics K.K., Hamamutsu City, Japan). The excitation wavelength was 488 nm and the emission wavelength 540 nm. After a control period of 12 seconds the inventive compounds were added and the Ca^2+ signal was measured within 14 minutes after application. Finally, a TRPA1 agonist, 6,11-dihydro-5H-dibenzo[b,e]azepine-10-carboxylic acid methyl ester, was added at a final concentration of 25 nM. The emission ratio was calculated by dividing the emission signal (Em540) by the first EM540 signal of the control period to compensate for the background fluorescence. […] For intracellular Ca^2+ measurements, a compound stock solution (10 to 100 mM) was further diluted in DMSO in order to obtain a final 1% DMSO concentration in the extracellular solution.

Sequence of Human TRPA1 (O75762 whole entry): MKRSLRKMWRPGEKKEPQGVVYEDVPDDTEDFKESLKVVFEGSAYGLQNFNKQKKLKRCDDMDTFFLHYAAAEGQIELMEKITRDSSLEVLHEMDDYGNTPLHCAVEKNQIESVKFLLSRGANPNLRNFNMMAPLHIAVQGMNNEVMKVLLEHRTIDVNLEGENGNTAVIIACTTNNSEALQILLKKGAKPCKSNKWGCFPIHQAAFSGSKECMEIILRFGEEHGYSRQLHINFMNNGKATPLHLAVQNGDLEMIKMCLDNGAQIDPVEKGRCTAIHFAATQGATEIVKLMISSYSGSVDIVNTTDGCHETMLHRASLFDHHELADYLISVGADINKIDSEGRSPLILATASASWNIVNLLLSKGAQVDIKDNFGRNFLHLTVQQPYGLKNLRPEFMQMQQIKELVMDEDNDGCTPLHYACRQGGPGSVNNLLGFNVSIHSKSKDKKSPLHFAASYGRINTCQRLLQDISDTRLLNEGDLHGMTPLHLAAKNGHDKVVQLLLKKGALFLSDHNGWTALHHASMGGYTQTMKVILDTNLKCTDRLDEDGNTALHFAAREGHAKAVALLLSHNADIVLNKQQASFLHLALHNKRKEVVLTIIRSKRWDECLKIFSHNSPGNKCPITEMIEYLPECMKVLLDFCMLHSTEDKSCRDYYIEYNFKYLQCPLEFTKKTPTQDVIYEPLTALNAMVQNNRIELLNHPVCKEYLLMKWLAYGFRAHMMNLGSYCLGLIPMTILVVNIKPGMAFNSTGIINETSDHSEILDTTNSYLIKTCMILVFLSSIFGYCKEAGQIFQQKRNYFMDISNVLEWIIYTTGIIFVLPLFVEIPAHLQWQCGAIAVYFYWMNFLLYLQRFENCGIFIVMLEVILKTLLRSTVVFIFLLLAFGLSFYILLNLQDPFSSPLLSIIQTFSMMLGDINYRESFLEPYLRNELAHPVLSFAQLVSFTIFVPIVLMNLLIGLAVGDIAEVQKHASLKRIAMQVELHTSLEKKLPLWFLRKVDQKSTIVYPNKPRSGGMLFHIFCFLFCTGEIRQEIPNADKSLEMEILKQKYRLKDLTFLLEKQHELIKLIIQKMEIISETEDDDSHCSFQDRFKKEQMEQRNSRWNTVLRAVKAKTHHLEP

Broadly, the IC50 is the concentration at which inhibition is half-maximal. A lower IC50 goes with inhibition by little substance. On to `CC(Nc1nc(CNC(=O)[C@@H]2CCCN2S(=O)(=O)c2ccc(F)cc2)cc(-c2ccc(Br)cc2)n1)c1ccccc1` (stereo partly drawn) [Example 212, 1-(4-Fluoro-benzenesulfonyl)-pyrrolidine-2S-carboxylic acid [6-(4-bromo-phenyl)-2-(1(R,S)-phenyl-ethylamino)-pyrimidin-4-ylmethyl]-amide], for which the IC50 was determined as 0.676 µM.
In turn, `O=C(NCc1cc(-c2ccc(Br)cc2)nc(N2CCC(Cc3ccccc3)CC2)n1)[C@@H]1CCCN1S(=O)(=O)c1ccc(F)cc1` [Example 213, 1-(4-Fluoro-benzenesulfonyl)-pyrrolidine-2S-carboxylic acid [2-(4-benzyl-piperidin-1-yl)-6-(4-bromo-phenyl)-pyrimidin-4-ylmethyl]-amide] returned an IC50 of 2.4 µM.
As for `CCOC(=O)C1CCN(c2nc(CNC(=O)[C@@H]3CCCN3S(=O)(=O)c3ccc(F)cc3)cc(-c3ccc(Br)cc3)n2)CC1` [Example 214, 1-[4-(4-Bromo-phenyl)-6-({[1-(4-fluoro-benzenesulfonyl)-pyrrolidine-2S-carbonyl]-amino}-methyl)-pyrimidin-2-yl]-piperidine-4-carboxylic acid ethyl ester], the IC50 is roughly 0.977 µM.
With `CCCCNc1nc(CNC(=O)[C@@H]2CCCN2S(=O)(=O)c2ccc(F)cc2)cc(-c2ccc(Br)cc2)n1` [Example 215, 1-(4-Fluoro-benzenesulfonyl)-pyrrolidine-2S-carboxylic acid [6-(4-bromo-phenyl)-2-butylamino-pyrimidin-4-ylmethyl]-amide], the IC50 came out at 1.02 µM.
As to `O=C(NCc1cc(-c2ccc(Br)cc2)nc(N2CCN(c3ccccn3)CC2)n1)[C@@H]1CCCN1S(=O)(=O)c1ccc(F)cc1` [Example 216, 1-(4-Fluoro-benzenesulfonyl)-pyrrolidine-2S-carboxylic acid [6-(4-bromo-phenyl)-2-(4-pyridin-2-yl-piperazin-1-yl)-pyrimidin-4-ylmethyl]-amide], the IC50 amounted to 1.2 µM.
For `O=C(NCc1cc(-c2ccc(Br)cc2)nc(N2CCOCC2)n1)[C@@H]1CCCN1S(=O)(=O)c1ccc(F)cc1` [Example 217, 1-(4-Fluoro-benzenesulfonyl)-pyrrolidine-2S-carboxylic acid [6-(4-bromo-phenyl)-2-morpholin-4-yl-pyrimidin-4-ylmethyl]-amide], the IC50 was 0.871 µM.
`CN1CCCN(c2nc(CNC(=O)[C@@H]3CCCN3S(=O)(=O)c3ccc(F)cc3)cc(-c3ccc(Br)cc3)n2)CC1` [Example 218, 1-(4-Fluoro-benzenesulfonyl)-pyrrolidine-2S-carboxylic acid [6-(4-bromo-phenyl)-2-(4-methyl-[1,4]diazepan-1-yl)-pyrimidin-4-ylmethyl]-amide] had a concentration for half-maximal inhibition (IC50) greater than 10 µM.
Regarding `O=C(NCc1cc(-c2ccc(Br)cc2)nc(NCc2cccnc2)n1)[C@@H]1CCCN1S(=O)(=O)c1ccc(F)cc1` [Example 219, 1-(4-Fluoro-benzenesulfonyl)-pyrrolidine-2S-carboxylic acid {6-(4-bromo-phenyl)-2-[(pyridin-3-ylmethyl)-amino]-pyrimidin-4-ylmethyl}-amide], the IC50 was roughly 2.69 µM.
`CN1CCN(c2nc(CNC(=O)[C@@H]3CCCN3S(=O)(=O)c3ccc(F)cc3)cc(-c3ccc(Br)cc3)n2)CC1` [Example 220, 1-(4-Fluoro-benzenesulfonyl)-pyrrolidine-2S-carboxylic acid [6-(4-bromo-phenyl)-2-(4-methyl-piperazin-1-yl)-pyrimidin-4-ylmethyl]-amide]: the IC50 was roughly 4.47 µM.
In the case of `O=C(NCc1cc(-c2ccc(Br)cc2)nc(NCCc2ccc(Cl)cc2Cl)n1)[C@@H]1CCCN1S(=O)(=O)c1ccc(F)cc1` [Example 221, 1-(4-Fluoro-benzenesulfonyl)-pyrrolidine-2S-carboxylic acid {6-(4-bromo-phenyl)-2-[2-(2,4-dichloro-phenyl)-ethylamino]-pyrimidin-4-ylmethyl}-amide] it was 2.04 µM; in that of `O=C(NCc1cc(-c2ccc(Br)cc2)nc(N2CCc3ccccc3C2)n1)[C@@H]1CCCN1S(=O)(=O)c1ccc(F)cc1` [Example 222, 1-(4-Fluoro-benzenesulfonyl)-pyrrolidine-2S-carboxylic acid [6-(4-bromo-phenyl)-2-(3,4-dihydro-1H-isoquinolin-2-yl)-pyrimidin-4-ylmethyl]-amide], 9.12 µM; in that of `O=C(NCc1cc(-c2ccc3c(c2)OCO3)nc(Nc2cccc(Cl)c2)n1)[C@@H]1CCCN1S(=O)(=O)c1ccc(F)cc1` [Example 223, 1-(4-Fluoro-benzenesulfonyl)-pyrrolidine-2S-carboxylic acid [6-benzo[1,3]dioxol-5-yl-2-(3-chloro-phenylamino)-pyrimidin-4-ylmethyl]-amide], greater than 10 µM.
In turn, `O=C(NCc1cc(-c2ccc3c(c2)OCO3)nc(Nc2ccc(Cl)cc2)n1)[C@@H]1CCCN1S(=O)(=O)c1ccc(F)cc1` [Example 224, 1-(4-Fluoro-benzenesulfonyl)-pyrrolidine-2S-carboxylic acid [6-benzo[1,3]dioxol-5-yl-2-(4-chloro-phenylamino)-pyrimidin-4-ylmethyl]-amide] returned an IC50 greater than 10 µM.
As for `O=C(NCc1cc(-c2ccc3c(c2)OCO3)nc(Nc2ccc(F)cc2)n1)[C@@H]1CCCN1S(=O)(=O)c1ccc(F)cc1` [Example 225, 1-(4-Fluoro-benzenesulfonyl)-pyrrolidine-2S-carboxylic acid [6-benzo[1,3]dioxol-5-yl-2-(4-fluoro-phenylamino)-pyrimidin-4-ylmethyl]-amide], the IC50 worked out at 2.51 µM.
Turning to `O=C(NCc1cc(-c2ccc(OC(F)(F)F)cc2)nc(N2CCN(c3ccccc3F)CC2)n1)[C@@H]1CCCN1S(=O)(=O)c1ccc(F)cc1` [Example 226, 1-(4-Fluoro-benzenesulfonyl)-pyrrolidine-2S-carboxylic acid [2-[4-(2-fluoro-phenyl)-piperazin-1-yl]-6-(4-trifluoromethoxy-phenyl)-pyrimidin-4-ylmethyl]-amide], the IC50 came out at 0.115 µM.
In the case of `O=C(NCc1cc(-c2ccc(F)cc2)nc(N2CCN(c3ccccc3F)CC2)n1)[C@@H]1CCCN1S(=O)(=O)c1ccc(F)cc1` [Example 227, 1-(4-Fluoro-benzenesulfonyl)-pyrrolidine-2S-carboxylic acid {6-(4-fluoro-phenyl)-2-[4-(2-fluoro-phenyl)-piperazin-1-yl]-pyrimidin-4-ylmethyl}-amide] it was 1.17 µM; in that of `COc1cccc(OC)c1-c1cc(CNC(=O)[C@@H]2CCCN2S(=O)(=O)c2ccc(F)cc2)nc(N2CCN(c3ccccc3F)CC2)n1` [Example 228, 1-(4-Fluoro-benzenesulfonyl)-pyrrolidine-2S-carboxylic acid {6-(2,6-dimethoxy-phenyl)-2-[4-(2-fluoro-phenyl)-piperazin-1-yl]-pyrimidin-4-ylmethyl}-amide], 2.29 µM.
As for `N#Cc1ccc(-c2cc(CNC(=O)[C@@H]3CCCN3S(=O)(=O)c3ccc(F)cc3)nc(N3CCN(c4ccccc4F)CC3)n2)cc1` [Example 229, 1-(4-Fluoro-benzenesulfonyl)-pyrrolidine-2-carboxylic acid {6-(4-cyano-phenyl)-2-[4-(2-fluoro-phenyl)-piperazin-1-yl]-pyrimidin-4-ylmethyl}-amide], the IC50 was 1.59 µM.

For the origin of these results see patent US8614201B2 (Janssen Pharmaceutica NV, priority 2009, dated 2013).
